Data set [1] relates to human lung cancer-derived cell line NCI-H460 having wild-type p53. The data set can be described thus: Cell growth inhibition assay (MTT). The format is cell-based. Particulars: 72 h, NCI-H460 cells, culturing 3 days, read-out: anti-cellular effect GI50 (50% growth inhibition concentration). Here is the method:
A cell growth inhibition assay was conducted using human lung cancer-derived cell line NCI-H460 having wild-type p53.
NCI-H460 cells were suspended in a medium (RPMI1640 medium containing 10% fetal bovine serum) and the suspension was inoculated in an amount of 500 cells/150 μL/well to a 96-well multiwell plate. A test compound was dissolved in DMSO and this solution was diluted with medium to prepare a sample solution (DMSO concentration: 1% or lower). On the next day of inoculation, medium nonsupplemented with the test compound or the sample solution was added in an amount of 50 μL/well. The MTT assay was conducted immediately after the medium was added in an amount of 50 μL on the next day of cell inoculation, and after the sample solution or the medium was added to cells followed by culturing at 37° C. for 3 days in a 5% CO2 atmosphere. The MTT assay was conducted as shown below.
A 5 mg/mL MTT (3-(4,5-dimethylthiazol-2-yl)-2,5-diphenyltetrazolium bromide, Sigma-Aldrich Co., M-2128) solution was prepared using a phosphate buffer solution (Dulbecco's Phosphate-buffered Saline). This MTT solution was added in an amount of 20 μL/well. Then, the plate was cultured at 37° C. for 4 hours in a 5% CO2 atmosphere. The plate was centrifuged at 1200 rpm for 5 minutes and then the culture supernatant was removed by aspiration using a dispenser. DMSO was added in an amount of 150 μL/well to dissolve generated formazan. The plate was stirred using a plate mixer for uniform color development from each well. The absorbance of each well was measured under conditions of OD 540 nm and reference 660 nm using a plate reader (SpectraMax PLUS384, Molecular Devices, CA, USA).
The OD value measured on the day of adding the sample solution was defined as S. The OD value measured three days after addition of the sample solution was defined as T. The OD value measured three days after addition of the DMSO dilution was defined as C. T/C (%) was determined at each concentration according to the calculation formula shown below to prepare a dose response curve, from which 50% growth inhibition concentration (GI50 value) was calculated. T/C(%)=(T−S)/(C−S)×100

The target in another data set is T1, Mdm2/p53 binding (Homo sapiens, UniProt Q00987, L33E).
T1 construct: Mdm2 amino acids at positions 25 to 108
The data set can be described thus: Mdm2/p53 binding assay (HTRF, His-p53 and GST-Mdm2). To be noted: His-p53 (aa 1-132) and GST-Mdm2 (aa 25-108, L33E), 6.25 nM each, 25° C. for 1 hour. Here is the method: Next, a test compound was diluted with DMSO to produce protein buffer solution containing 10% dilution, and this buffer solution was added in an amount of 4 μL/well to the plate.
These dilutions were added in an amount of 8 μL/well (total reaction solution volume: 20 μl/well). Then, the plate was left at 25° C. for 1 hour.
The R value calculated from the well supplemented with His-p53, GST-Mdm2, the test compound, and each antibody was defined as R (sample). The R value calculated from the well supplemented with His-p53, GST-Mdm2, and each antibody but without the test compound was defined as R (control). The R value calculated from the well supplemented with GST-Mdm2, the test compound, and each antibody but without His-p53 was defined as R (background). T/C was calculated from the formula shown below. An IC50 value for Mdm2/p53 binding was calculated by sigmoid fitting. T/C=(R(sample)−R(background))/(R(control)−R(background))

Data set [2] in a line: Metabolic stability test (microsomal metabolism). Also: tested at 1.1 µM. The format is in vitro ADME. To be noted: human liver microsomes, 37° C., 30 minutes after addition of NADP+. On the procedure:
100 μL of 100 mM phosphate buffer solution (pH 7.4) containing 3 μM test compound was added to 100 μL of reaction solution containing 100 mM phosphate buffer solution (pH 7.4), 30 mM glucose 6-phosphate, 10 mM MgCl2.6H2O, 3 units/mL glucose 6-phosphate 1-dehydrogenase, and 0.3 to 1.5 mgP/mL human liver microsomes and the mixture was incubated at 37° C. for 20 minutes. Then, 70 μL of 100 mM phosphate buffer solution (pH 7.4) containing 3 mM NADP+ was added and the mixture was further incubated at 37° C. for 30 minutes to conduct a microsomal metabolism test. The compound was quantified by the internal standard method using a quadrupole mass spectrometer connected to a high performance liquid chromatography apparatus. The metabolic stability (residual percentage of compound: MS %) was determined according to the following formula: MS(human)(%)=(peak area ratio of test compound after addition of NADP+ and incubation for 30 minutes)/(peak area ratio of test compound before addition of NADP+)×100.
(peak area ratio: peak area of test compound divided by that of internal standard substance)
(In general: Liver microsomes are vesicles of endoplasmic reticulum, rich in cytochrome P450 enzymes.)

The results in this text go back to patent US8404691B2, “Imidazothiazole derivatives having proline ring structure” (Daiichi Sankyo Company, Limited, priority 2009, dated 2013).

Structures are written as SMILES.

T1 sequence (Q00987 25-108 L33E): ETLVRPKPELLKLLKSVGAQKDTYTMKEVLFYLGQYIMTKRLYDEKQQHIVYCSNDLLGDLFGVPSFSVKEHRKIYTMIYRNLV

On to `CC[C@@H]1CNC2(CC2)CN1C(=O)[C@@H]1C[C@@H](F)CN1C(=O)C1=C(C(C)C)N2C(=N[C@@](C)(c3ccc(Cl)nc3)[C@H]2c2ccc(Cl)cc2)S1` [Example 30], for which the GI50 in data set [1] fell in the range of 400 to 2500 nM. This compound came in with an IC50 on Mdm2/p53 binding of 3.1 nM. Besides, the “MS (human) % (metabolic stability, residual percentage of compound)” value in data set [2] is 62%.

`CC(C)C1=C(C(=O)N2C[C@H](F)C[C@H]2C(=O)N2CC3(CC3)NC[C@@H]2CF)SC2=N[C@@](C)(c3ccc(Cl)nc3)[C@@H](c3ccc(Cl)c(F)c3)N21` [Example 31]: in data set [1], the GI50 is less than 400 nM. Besides, at Mdm2/p53 binding, the IC50 is 3.1 nM. Further, the “MS (human) % (metabolic stability, residual percentage of compound)” value in data set [2] stood at 6%.

Usually IC50 stands for the concentration that gives 50% inhibition. The low end stands for higher potency, the high end for lower potency.
